Laboratory results published in patent US20140249135A1, “PIM KINASE INHIBITORS AND METHODS OF THEIR USE” (NOVARTIS AG, priority 2007, published 2014).
Where “and” joins values, the source holds several entries; their conditions need not be identical. Equal entries are not always repeated.

How the values were obtained:
[1] = biological target: Pim3 kinase (Homo sapiens, UniProt Q86V86); experiment: Pim3 ATP depletion assay; type: biochemical; conditions: read-out: IC50 (μM) PIM3
[2] = biological target: Pim2 kinase (Homo sapiens, UniProt Q9P1W9); experiment: Pim2 ATP depletion assay; type: biochemical; conditions: read-out: IC50 (μM) PIM2;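 also: Luciferase-based luminescent readout of ATP remaining after PIM2 phosphorylates a BAD peptide, final 5 nM enzyme, 4 µM ATP, 10 µM peptide, 2.5% DMSO, run to roughly half ATP consumption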
[3] = biological target: KDR kinase (Homo sapiens, UniProt P35968); experiment: KDR AlphaScreen assay; conditions: KDR IC50 (μM)
[4] = test system: PC3 cells; experiment: Cell proliferation assay (CellTiter-Glo), PC3; type: cell-based; conditions: Homo sapiens, PC-3
Experimental: HEL 92.1.7 cells (ATTC No. TIB-180, an erythroleukemia line derived from malignant peripheral blood), MV4-11 cells (ATCC No. CRL-9591, a human acute monocytic leukemia line) and PC3 cells (ATCC No. CRL-1435, a human prostatic adenocarcinoma line) were cultured in RPMI1640 supplemented with 10% FBS, sodium pyruvate and antibiotics. Cells were plated in the same medium at a density of 1000 cells per well into 96 well tissue culture plates, with outside wells vacant, on the day of assay.
Test compounds supplied in DMSO were diluted into DMSO at 500 times the desired final concentrations before dilution into culture media to 2 times final concentrations. Equal volumes of 2× compounds were added to the cells in 96 well plates and incubated at 37° C. for 3 days.
After 3 days plates were equilibrated to room temperature and equal volume of CellTiter-Glow Reagent (Promega) was added to the culture wells. The plates were agitated briefly and luminescent signal was measured with luminometer. The percent inhibition of the signal seen in cells treated with DMSO alone vs. cells treated with control compound was calculated and used to determine EC50 values (i.e., the concentration of a test compound that is required to obtain 50% of the maximum effect in the cells) for tested compounds, as shown in Example 763.

[5] = biological target: Pim1 kinase (Homo sapiens, UniProt P11309); experiment: Pim1 ATP depletion assay; type: biochemical; conditions: Pim1 ATP depletion assay; read-out: IC50 (μM) PIM1;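 also: Luciferase-luciferin luminescence readout of residual ATP after PIM1 transfers phosphate to a peptide substrate, 40 µM ATP added, reaction run to roughly half ATP consumption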
[6] = biological target: T1, human full length PKCE enzyme (Homo sapiens, UniProt Q02156); experiment: In vitro PKCE assay; type: biochemical; conditions: 10 nM enzyme, 40 uM peptide substrate, 20 uM ATP, KinaseGlo Plus readout; read-out: PKCε IC50
T1 construct: human full length PKCE enzyme purchased from InVitrogen; purchased InVitrogen
T1 sequence (Q02156 1-737): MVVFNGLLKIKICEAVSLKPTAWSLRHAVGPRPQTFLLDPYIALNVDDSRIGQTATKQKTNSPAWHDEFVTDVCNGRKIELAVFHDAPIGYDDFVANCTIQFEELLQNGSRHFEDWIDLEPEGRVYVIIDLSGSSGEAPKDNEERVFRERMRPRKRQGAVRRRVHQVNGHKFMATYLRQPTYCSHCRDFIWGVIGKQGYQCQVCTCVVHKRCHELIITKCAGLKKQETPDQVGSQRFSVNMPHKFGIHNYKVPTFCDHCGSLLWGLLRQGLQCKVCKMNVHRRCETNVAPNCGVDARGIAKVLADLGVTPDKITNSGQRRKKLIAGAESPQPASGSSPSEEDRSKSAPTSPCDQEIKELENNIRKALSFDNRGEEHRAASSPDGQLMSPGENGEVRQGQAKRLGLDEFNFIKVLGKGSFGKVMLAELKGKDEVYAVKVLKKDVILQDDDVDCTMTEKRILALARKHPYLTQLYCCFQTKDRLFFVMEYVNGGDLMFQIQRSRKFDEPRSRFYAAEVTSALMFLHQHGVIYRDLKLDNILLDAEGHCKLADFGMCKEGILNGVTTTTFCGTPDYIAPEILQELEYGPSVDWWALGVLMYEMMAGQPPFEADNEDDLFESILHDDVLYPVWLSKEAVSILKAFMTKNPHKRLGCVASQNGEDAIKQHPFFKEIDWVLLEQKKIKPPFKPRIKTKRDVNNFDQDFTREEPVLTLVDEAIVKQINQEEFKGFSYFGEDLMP

Chain of KDR kinase (P35968 20-1356): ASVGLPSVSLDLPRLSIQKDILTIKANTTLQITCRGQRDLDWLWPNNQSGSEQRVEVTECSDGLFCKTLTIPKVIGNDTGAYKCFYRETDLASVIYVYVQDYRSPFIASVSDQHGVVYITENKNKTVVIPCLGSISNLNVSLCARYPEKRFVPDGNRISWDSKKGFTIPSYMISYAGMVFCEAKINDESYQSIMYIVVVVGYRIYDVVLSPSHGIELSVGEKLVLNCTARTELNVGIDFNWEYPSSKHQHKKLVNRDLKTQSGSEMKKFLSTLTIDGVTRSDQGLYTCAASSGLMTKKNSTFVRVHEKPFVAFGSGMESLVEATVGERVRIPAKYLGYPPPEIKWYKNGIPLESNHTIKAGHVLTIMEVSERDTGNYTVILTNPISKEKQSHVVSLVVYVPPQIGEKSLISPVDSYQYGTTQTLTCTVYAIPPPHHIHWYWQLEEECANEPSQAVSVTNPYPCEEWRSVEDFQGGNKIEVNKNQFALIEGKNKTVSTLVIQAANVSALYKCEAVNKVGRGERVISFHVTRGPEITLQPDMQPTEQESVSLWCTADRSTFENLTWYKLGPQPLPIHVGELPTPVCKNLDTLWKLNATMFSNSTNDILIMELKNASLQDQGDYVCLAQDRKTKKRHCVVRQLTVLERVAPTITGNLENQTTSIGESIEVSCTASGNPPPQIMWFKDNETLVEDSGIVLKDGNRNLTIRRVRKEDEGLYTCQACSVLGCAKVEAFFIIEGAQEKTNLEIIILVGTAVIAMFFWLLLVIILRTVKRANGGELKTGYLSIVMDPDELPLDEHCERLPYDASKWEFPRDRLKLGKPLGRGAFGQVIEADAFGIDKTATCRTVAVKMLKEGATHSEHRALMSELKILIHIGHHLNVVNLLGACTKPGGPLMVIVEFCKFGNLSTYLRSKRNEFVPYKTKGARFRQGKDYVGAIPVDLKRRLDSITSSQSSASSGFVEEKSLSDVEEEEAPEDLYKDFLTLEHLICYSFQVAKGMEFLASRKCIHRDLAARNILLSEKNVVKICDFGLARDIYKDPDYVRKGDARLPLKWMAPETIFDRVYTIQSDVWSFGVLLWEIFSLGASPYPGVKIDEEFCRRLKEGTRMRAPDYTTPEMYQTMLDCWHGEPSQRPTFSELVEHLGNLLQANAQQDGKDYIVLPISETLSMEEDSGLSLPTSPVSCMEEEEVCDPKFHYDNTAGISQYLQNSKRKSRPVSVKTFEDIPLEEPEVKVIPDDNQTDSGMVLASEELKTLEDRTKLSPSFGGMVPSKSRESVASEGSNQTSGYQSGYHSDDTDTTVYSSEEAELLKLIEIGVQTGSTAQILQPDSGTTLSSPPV
Chain of Pim2 kinase (Q9P1W9 whole entry): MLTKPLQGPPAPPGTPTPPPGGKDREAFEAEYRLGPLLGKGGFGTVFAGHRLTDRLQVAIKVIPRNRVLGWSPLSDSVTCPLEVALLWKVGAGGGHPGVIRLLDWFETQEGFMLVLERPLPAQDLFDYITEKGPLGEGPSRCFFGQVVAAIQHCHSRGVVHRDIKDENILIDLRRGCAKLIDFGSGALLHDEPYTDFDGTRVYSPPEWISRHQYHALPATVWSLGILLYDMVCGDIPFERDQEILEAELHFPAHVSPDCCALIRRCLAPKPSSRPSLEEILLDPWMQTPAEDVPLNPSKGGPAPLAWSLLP
Chain of Pim1 kinase (P11309 whole entry): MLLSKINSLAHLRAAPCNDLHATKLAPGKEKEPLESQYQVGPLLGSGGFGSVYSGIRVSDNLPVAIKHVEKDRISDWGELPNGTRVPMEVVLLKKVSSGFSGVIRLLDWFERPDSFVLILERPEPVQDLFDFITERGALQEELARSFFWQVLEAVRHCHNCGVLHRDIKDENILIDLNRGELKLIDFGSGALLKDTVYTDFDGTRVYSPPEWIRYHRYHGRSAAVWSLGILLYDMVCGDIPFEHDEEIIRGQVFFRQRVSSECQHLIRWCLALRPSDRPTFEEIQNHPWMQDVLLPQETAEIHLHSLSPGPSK

Row | SMILES | IC50 [1] [µM] | IC50 [2] [µM] | IC50 [3] | EC50 [4] [µM] | IC50 [5] [µM] | IC50 [6]
1 | CN(C)C1CCN(c2ccncc2NC(=O)c2nccnc2N)CC1 [Example 126, 3-amino-N-{4-[4-(dimethyl-amino)piperidin-1-yl]pyridin-3-yl}pyrazine-2-carboxamide] | < 1 | 1 to 10 | 1 to 10 µM | 5 to 10 | < 1 | < 1000 nM
2 | Nc1ncc(Br)nc1C(=O)Nc1ccccc1N1CCC(N)CC1 [Example 205, 3-amino-N-[2-(4-aminopiperidin-1-yl)phenyl]-6-bromopyrazine-2-carboxamide] | < 1 | < 1 | 1 to 10 µM | < 1 | < 1 | < 1000 nM
3 | Nc1nccnc1C(=O)Nc1cc(Cl)ccc1N1CCC(N)CC1 [Example 214, 3-amino-N-[2-(4-aminopiperidin-1-yl)-5-chlorophenyl]pyrazine-2-carboxamide] | < 1 | 1 to 10 | 10 to 25 µM | 1 to 5 | < 1 | < 1000 nM
4 | COc1ccc(N2CCC(N)CC2)c(NC(=O)c2nccnc2N)c1 [Example 222, 3-amino-N-[2-(4-aminopiperidin-1-yl)-5-methoxyphenyl]pyrazine-2-carboxamide] | < 1 | 10 to 25 | > 25 µM | > 10 | < 1 | < 1000 nM
5 | Nc1ncc(-c2ccccc2)nc1C(=O)Nc1cnccc1N1CCNCC1 [Example 359, 3-amino-6-phenyl-pyrazine-2-carboxylic acid (4-piperazin-1-yl-pyridin-3-yl)-amide] | < 1 | < 1 | < 1 µM | < 1 | < 1 | < 1000 nM
6 | COc1ccc(-c2cnc(N)c(C(=O)Nc3cnccc3N3CCNCC3)n2)cc1 [Example 362, 3-amino-6-(4-methoxy-phenyl)-pyrazine-2-carboxylic acid (4-piperazin-1-yl-pyridin-3-yl)-amide] | < 1 | < 1 | < 1 µM | < 1 | < 1 | < 1000 nM
7 | Nc1ncc(-c2ccccc2F)nc1C(=O)Nc1cnccc1N1CCNCC1 [Example 363, 3-amino-6-(2-fluoro-phenyl)-pyrazine-2-carboxylic acid (4-piperazin-1-yl-pyridin-3-yl)-amide] | < 1 |  | < 1 µM | < 1 | < 1 | < 1000 nM
8 | Nc1ncc(-c2ccccc2)nc1C(=O)Nc1cnccc1N1CCC(N)CC1 [Example 364, 3-amino-6-phenyl-pyrazine-2-carboxylic acid (4-amino-3,4,5,6-tetrahydro-2H-[1,4′]bi-pyridinyl-3′-yl)-amide] | < 1 |  | < 1 µM and 1 to 10 µM | < 1 | < 1 | < 1000 nM
9 | Nc1ncc(-c2ccccc2Oc2ccccc2)nc1C(=O)Nc1cnccc1N1CCC(N)CC1 [Example 365, 3-amino-6-(2-phenoxy-phenyl)-pyrazine-2-carboxylic acid (4-amino-3,4,5,6-tetra-hydro-2H-[1,4′]bipyridinyl-3′-yl)-amide] | < 1 | 1 to 10 | < 1 µM | > 10 | < 1 | < 1000 nM
10 | COc1ccc(-c2cnc(N)c(C(=O)Nc3cnccc3N3CCC(N)CC3)n2)cc1 [Example 367, 3-amino-6-(4-methoxy-phenyl)-pyrazine-2-carboxylic acid (4-amino-3,4,5,6-tetra-hydro-2H-[1,4′]bipyridinyl-3′-yl)-amide] | < 1 |  | < 1 µM | < 1 | < 1 | < 1000 nM
11 | Nc1ncc(-c2ccccc2F)nc1C(=O)Nc1cnccc1N1CCC(N)CC1 [Example 368, 3-amino-6-(2-fluoro-phenyl)-pyrazine-2-carboxylic acid (4-amino-3,4,5,6-tetrahydro-2H-[1,4′]bipyridinyl-3′-yl)-amide] | < 1 |  | < 1 µM | < 1 | < 1 | < 1000 nM
12 | COc1ccc(-c2cnc(N)c(C(=O)Nc3cnccc3N3CCCC(N)C3)n2)cc1 (centres unmarked) [Example 370, 3-amino-6-(4-methoxy-phenyl)-pyrazine-2-carboxylic acid (3-amino-3,4,5,6-tetra-hydro-2H-[1,4′]bipyridinyl-3′-yl)-amide] | < 1 | < 1 | < 1 µM | 5 to 10 | < 1 | < 1000 nM
13 | Cc1cnc(N)c(C(=O)Nc2ccccc2N2CCC(N)CC2)n1 [Example 378, 3-amino-N-[2-(4-amino-piperidin-1-yl)phenyl]-6-methylpyrazine-2-carboxamide] | 1 to 10 | 10 to 25 | > 25 µM | 1 to 5 | < 1 | < 1000 nM

The next lines start with the values.

Row | IC50 [1] [µM] | IC50 [2] [µM] | IC50 [3] | EC50 [4] [µM] | IC50 [5] [µM] | IC50 [6] | SMILES
14 | < 1 | < 1 | > 25 µM | > 10 | < 1 | < 1000 nM | Nc1nccnc1C(=O)Nc1ccccc1N1CCCC(N)C1 (centres unmarked) [Example 195, 3-amino-N-[2-(3-aminopiperidin-1-yl)phenyl]pyrazine-2-carboxamide]
15 | < 1 | < 1 | 10 to 25 µM | 5 to 10 | < 1 | < 1000 nM | Nc1nccnc1C(=O)Nc1ccccc1N1CCC[C@H](N)C1 [Example 201, 3-amino-N-{2-[(3S)-3-amino-piperidin-1-yl]phenyl}pyrazine-2-carboxamide]
16 | 1 to 10 | > 25 | > 25 µM | 1 to 5 | 1 to 10 | < 1000 nM | Nc1nccnc1C(=O)Nc1ccccc1N1CCNCC1 [Example 202, 3-amino-N-(2-piperazin-1-ylphenyl)pyrazine-2-carbox-amide]
17 | < 1 | 1 to 10 | > 25 µM | < 1 | < 1 | < 1000 nM | Nc1nccnc1C(=O)Nc1ccccc1N1CCC(N)CC1 [Example 203, 3-amino-N-[2-(4-aminopiperidin-1-yl)phenyl]pyrazine-2-carboxamide]
18 | 1 to 10 | > 25 | > 25 µM and 10 to 25 µM | 5 to 10 | < 1 | 10000 to 25000 nM and < 1000 nM | Cc1ccc(N2CCC(N)CC2)c(NC(=O)c2nccnc2N)c1 [Example 217, 3-amino-N-[2-(4-aminopiperidin-1-yl)-5-methylphenyl]pyrazine-2-carboxamide]
19 | < 1 | 10 to 25 | 10 to 25 µM | 5 to 10 | < 1 | < 1000 nM | Cc1ccc(NC(=O)c2nccnc2N)c(N2CCC(N)CC2)c1 [Example 228, 3-amino-N-[2-(4-aminopiperidin-1-yl)-4-methylphenyl]pyrazine-2-carboxamide]
20 | < 1 | < 1 | < 1 µM | 1 to 5 | < 1 | < 1000 nM | Nc1ncc(-c2ccccc2)nc1C(=O)Nc1ccccc1N1CCCC(N)C1 (centres unmarked) [Example 372, 3-amino-6-phenyl-pyrazine-2-carboxylic acid [2-(3-amino-piperidin-1-yl)-phenyl]-amide]
21 | < 1 | < 1 | > 25 µM | > 10 | < 1 | < 1000 nM | Cc1cnc(N)c(C(=O)Nc2ccccc2N2CCCC(N)C2)n1 (centres unmarked) [Example 376, 3-amino-6-methyl-pyrazine-2-carboxylic acid [2-(3-amino-piperidin-1-yl)-phenyl]-amide]
